Laboratory results from patent publication US7772434B2, “Crystalline form of a β2 adrenergic receptor agonist” (Theravance, Inc., priority 2003, dated 2010).
Where a name gives a salt, the structure may show the parent alone.

Legend:
[1] = Solid state stability testing (storage at elevated temperature and humidity); assay type: physicochemical
Protocol: Samples (250 mg each) of the monoHCl salt of Examples 9 and 10 were stored at 40° C. and 75% relative humidity in open containers and in closed containers. Additional samples (100 mg each) of the monoHCl salt were stored at 50° C. in closed containers. […] Water percentage of the samples stored at 40° C. was less than 0.25% after two and four weeks of storage.
The differential scanning calorimetry trace of Example 14, shown in FIG. 2 was obtained with a TA instruments model DSC2010. Samples were placed in sealed aluminum pans for analysis with an empty pan serving as the reference. Samples were equilibrated at 30° C. and heated at 5° C. per minute to a temperature of 300° C. The instrument was calibrated with an indium standard.
Thermogravimetric analysis was conducted using a TA instruments model Q50. Samples were weighed in aluminum pans and heated from 50° C. to 300° C. at a rate of 10° C./min.
HPLC analysis was conducted using a MAC MOD Ace-5, C18, 25 cm×4.6 mm, 5 μm column, equilibrated at 30° C. The mobile phases used were: A: 0.1% TFA in 98:2 water:acetonitrile; and B: 0.1% TFA in 10:90 water:acetonitrile. Detection was by UV absorbance at 244 nm. The initial condition was 6% phase B. A flow rate of 1.0 mL/min and gradients of 6 to 30% B over 25 min, 30% to 60% B in 10 min and 60% to 100% B in 2 min were utilized. The monoHCl salt of compound 1 gave a retention time of 19.1 min.
Water content was determined by coulometric Karl Fischer titration using a Brinkman Metrohm Karl Fischer Model 831 coulometer.

[2] = Hygroscopicity / deliquescence on exposure to the atmosphere at high relative humidity; assay type: physicochemical; conditions: exposed to the atmosphere for prolonged periods at high relative humidity
[3] = all storage conditions: 40° C. and 75% relative humidity in open and closed containers, 50° C. in closed containers, after four weeks

analysis by DSC and TGA [1, 3]: no detectable differneces
change in the appearance of the material [1, 3]: no observable change
chemical degradation, analysis by HPLC [1, 3]: no detectable chemical degradation
thermal stability ([1]; at elevated temperatures): thermally stable
analysis by DSC ([1]; four weeks at 40° C. and 75% humidity in open and closed containers and at 50° C. in a closed container): no detectable difference
chemical degradation, analysis by HPLC ([1]; four weeks at 40° C. and 75% humidity in open and closed containers and at 50° C. in a closed container, summary statement): no appreciable chemical degradation
Water percentage of the samples ([1]; samples stored at 40° C. (75% relative humidity), after two and four weeks of storage, Karl Fischer): less than 0.25%
hygroscopicity / deliquescence [2]: neither hygroscopic nor deliquescent
Compound: O=CNc1cc([C@@H](O)CNCCc2ccc(NC[C@H](O)c3ccccc3)cc2)ccc1O [monohydrochloride salt of compound 1, N-{2-[4-((R)-2-hydroxy-2-phenylethylamino)phenyl]ethyl}-(R)-2-hydroxy-2-(3-formamido-4-hydroxyphenyl)ethylamine monohydrochloride]
